Literature values in patent US6117869A, “Compounds for and methods of inhibiting matrix metalloproteinases” (Warner-Lambert Company, priority 1999, dated 2000).

Tested on: experimental allergic encephalomyelitis (EAE)
Settings: dose dependent; cited from earlier work

CNC(=O)[C@H](Cc1c[nH]c2ccccc12)NC(=O)[C@@H](CC(=O)NO)CC(C)C [GM6001]
development or clinical expression of EAE: suppressed the development or reversed the clinical expression
